Assay results reported in ChEMBL document CHEMBL5653631, “A Potent and Selective ULK1 Inhibitor Suppresses Autophagy and Sensitizes Cancer Cells to Nutrient Stress” (iScience, 2018).

Experiments:
[1] = biological target: T1, Inhibitor of nuclear factor kappa-B kinase subunit beta (Homo sapiens) (UniProt O14920); assay: Inhibition of human recombinant IKKb at 40 nM related to control ULK1
T1 sequence (whole entry): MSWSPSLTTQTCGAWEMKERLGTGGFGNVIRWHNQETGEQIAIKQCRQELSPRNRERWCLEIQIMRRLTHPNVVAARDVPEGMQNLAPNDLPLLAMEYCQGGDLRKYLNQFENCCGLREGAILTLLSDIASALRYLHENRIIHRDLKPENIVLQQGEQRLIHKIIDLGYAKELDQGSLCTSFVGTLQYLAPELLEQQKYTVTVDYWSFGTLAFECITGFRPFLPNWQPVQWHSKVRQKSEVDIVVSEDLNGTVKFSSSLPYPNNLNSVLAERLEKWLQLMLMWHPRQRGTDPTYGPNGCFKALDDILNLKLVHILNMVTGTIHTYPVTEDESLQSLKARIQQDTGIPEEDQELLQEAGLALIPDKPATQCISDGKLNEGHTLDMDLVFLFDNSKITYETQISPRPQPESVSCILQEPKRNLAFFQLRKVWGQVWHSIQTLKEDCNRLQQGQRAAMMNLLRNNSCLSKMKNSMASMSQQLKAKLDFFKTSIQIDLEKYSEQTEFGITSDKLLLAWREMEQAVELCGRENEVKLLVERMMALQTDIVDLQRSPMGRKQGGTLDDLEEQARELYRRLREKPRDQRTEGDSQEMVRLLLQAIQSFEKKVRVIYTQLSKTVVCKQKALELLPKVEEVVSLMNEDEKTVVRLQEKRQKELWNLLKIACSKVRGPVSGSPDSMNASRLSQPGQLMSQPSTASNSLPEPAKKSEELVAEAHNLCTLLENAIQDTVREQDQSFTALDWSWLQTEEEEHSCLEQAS

[2] = biological target: Insulin receptor-related protein (Homo sapiens) (UniProt P14616); assay: Inhibition of human recombinant IRR at 40 nM in presence of ATP by radiometric assay relative to control
[3] = biological target: Cyclin-dependent kinase 5 (Homo sapiens) (UniProt Q00535); assay: Inhibition of human recombinant CDK5 at 40 nM related to control ULK1
[4] = biological target: Protein kinase C delta type (Homo sapiens) (UniProt Q05655); assay: Inhibition of human recombinant PKCd at 40 nM in presence of ATP by radiometric assay relative to control
[5] = biological target: T2, Beta-adrenergic receptor kinase 1 (Homo sapiens) (UniProt P25098); assay: Inhibition of human recombinant BARK1 at 15 nM related to control ULK1
T2 sequence (whole entry): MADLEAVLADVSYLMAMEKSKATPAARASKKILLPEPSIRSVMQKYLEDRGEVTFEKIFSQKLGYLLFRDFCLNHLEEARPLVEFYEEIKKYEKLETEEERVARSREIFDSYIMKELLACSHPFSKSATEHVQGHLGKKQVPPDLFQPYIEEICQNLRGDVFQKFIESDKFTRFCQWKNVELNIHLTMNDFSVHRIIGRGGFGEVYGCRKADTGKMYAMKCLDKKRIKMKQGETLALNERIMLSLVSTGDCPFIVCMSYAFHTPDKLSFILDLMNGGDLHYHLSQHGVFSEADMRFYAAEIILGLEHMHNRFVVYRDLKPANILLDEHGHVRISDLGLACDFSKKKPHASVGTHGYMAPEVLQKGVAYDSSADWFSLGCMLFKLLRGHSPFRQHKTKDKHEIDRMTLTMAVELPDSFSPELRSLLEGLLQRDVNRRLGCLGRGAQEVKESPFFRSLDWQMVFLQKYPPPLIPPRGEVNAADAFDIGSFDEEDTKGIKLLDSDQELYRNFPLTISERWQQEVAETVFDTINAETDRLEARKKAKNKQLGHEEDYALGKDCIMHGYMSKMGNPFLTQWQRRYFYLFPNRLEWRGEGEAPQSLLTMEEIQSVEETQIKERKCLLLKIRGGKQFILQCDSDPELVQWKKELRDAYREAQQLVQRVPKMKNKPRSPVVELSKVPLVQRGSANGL

[6] = biological target: Death-associated protein kinase 3 (Homo sapiens) (UniProt O43293); assay: Inhibition of human recombinant DAPK3 at 15 nM in presence of ATP by radiometric assay relative to control
[7] = biological target: T3, SNF-related serine/threonine-protein kinase (Homo sapiens) (UniProt Q9NRH2); assay: Inhibition of human recombinant SNRK at 500 nM related to control ULK1
T3 sequence (whole entry): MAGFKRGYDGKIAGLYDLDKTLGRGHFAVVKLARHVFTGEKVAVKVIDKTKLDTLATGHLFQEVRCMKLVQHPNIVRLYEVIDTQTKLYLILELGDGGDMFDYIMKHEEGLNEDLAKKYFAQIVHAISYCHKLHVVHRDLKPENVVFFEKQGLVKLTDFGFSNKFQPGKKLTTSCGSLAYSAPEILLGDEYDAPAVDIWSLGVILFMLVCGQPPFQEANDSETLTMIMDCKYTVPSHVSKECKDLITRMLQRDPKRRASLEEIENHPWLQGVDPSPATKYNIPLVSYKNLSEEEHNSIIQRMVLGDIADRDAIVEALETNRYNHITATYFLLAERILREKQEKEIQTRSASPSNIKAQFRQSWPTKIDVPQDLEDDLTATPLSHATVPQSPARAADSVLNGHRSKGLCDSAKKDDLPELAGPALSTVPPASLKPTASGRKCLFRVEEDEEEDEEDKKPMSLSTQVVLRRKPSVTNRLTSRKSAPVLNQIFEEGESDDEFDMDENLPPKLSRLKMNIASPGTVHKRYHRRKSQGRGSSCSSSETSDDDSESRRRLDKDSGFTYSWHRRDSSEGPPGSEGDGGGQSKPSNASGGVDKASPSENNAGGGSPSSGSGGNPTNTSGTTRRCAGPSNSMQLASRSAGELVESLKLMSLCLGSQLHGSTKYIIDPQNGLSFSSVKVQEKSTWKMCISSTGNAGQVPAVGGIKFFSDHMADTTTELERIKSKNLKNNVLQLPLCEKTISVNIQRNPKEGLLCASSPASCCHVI

Death-associated protein kinase 3 (Homo sapiens), sequence (O43293 whole entry, looked up): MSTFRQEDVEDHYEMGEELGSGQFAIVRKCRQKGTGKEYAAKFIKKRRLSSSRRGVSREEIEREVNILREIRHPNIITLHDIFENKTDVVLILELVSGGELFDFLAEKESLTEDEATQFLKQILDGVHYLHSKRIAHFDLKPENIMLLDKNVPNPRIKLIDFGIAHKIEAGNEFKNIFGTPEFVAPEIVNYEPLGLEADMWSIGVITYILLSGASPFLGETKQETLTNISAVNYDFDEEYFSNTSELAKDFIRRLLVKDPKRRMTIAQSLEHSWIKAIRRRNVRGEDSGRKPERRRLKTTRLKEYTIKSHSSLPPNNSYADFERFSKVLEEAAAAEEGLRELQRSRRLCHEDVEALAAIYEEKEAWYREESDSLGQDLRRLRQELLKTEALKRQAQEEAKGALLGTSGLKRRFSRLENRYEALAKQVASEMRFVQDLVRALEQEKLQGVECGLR
Cyclin-dependent kinase 5 (Homo sapiens), sequence (Q00535 whole entry, looked up): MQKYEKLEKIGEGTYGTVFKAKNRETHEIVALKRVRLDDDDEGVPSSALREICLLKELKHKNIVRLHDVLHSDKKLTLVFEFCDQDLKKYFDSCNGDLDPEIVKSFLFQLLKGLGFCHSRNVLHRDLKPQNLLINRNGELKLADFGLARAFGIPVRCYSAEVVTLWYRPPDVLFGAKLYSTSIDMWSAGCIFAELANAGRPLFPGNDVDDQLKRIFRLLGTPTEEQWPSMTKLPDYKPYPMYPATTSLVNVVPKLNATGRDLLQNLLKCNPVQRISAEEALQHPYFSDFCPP
Protein kinase C delta type (Homo sapiens), sequence (Q05655 whole entry, looked up): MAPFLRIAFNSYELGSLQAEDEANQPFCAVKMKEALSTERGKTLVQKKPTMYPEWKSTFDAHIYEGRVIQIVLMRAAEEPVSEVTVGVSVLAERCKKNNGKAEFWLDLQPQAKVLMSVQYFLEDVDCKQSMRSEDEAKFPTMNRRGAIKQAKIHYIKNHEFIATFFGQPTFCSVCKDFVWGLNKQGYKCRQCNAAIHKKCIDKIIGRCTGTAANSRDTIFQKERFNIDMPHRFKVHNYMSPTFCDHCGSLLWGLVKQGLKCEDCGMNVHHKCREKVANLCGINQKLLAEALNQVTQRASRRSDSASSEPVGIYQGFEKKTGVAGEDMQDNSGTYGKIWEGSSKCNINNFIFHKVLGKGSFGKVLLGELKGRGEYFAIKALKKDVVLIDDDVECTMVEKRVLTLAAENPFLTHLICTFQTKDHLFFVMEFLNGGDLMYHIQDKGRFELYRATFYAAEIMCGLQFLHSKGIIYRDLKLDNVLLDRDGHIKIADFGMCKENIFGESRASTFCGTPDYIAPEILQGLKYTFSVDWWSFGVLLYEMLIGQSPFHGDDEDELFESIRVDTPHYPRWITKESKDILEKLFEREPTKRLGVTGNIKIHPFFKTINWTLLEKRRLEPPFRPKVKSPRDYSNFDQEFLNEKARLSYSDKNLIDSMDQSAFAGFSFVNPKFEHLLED
Insulin receptor-related protein (Homo sapiens), sequence (P14616 27-742 limits assumed): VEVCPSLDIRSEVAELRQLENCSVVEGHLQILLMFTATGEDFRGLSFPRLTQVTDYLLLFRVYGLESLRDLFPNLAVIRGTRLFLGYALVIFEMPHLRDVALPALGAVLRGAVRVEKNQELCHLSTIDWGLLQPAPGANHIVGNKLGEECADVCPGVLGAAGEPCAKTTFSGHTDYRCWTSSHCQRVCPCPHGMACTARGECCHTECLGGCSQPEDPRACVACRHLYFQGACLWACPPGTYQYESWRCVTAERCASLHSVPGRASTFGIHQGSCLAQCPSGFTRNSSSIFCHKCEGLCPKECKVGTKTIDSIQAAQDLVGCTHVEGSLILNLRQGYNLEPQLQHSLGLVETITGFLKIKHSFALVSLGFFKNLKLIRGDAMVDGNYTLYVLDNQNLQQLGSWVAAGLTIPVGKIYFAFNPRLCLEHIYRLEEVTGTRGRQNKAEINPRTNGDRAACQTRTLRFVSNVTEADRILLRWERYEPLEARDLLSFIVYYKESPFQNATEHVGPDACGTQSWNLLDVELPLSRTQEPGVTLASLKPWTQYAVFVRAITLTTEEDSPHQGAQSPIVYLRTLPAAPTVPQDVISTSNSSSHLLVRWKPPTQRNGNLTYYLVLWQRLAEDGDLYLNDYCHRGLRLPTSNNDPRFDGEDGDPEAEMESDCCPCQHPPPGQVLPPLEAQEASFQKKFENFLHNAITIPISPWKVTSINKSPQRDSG
Insulin receptor-related protein (Homo sapiens), sequence (P14616 747-1297 limits assumed): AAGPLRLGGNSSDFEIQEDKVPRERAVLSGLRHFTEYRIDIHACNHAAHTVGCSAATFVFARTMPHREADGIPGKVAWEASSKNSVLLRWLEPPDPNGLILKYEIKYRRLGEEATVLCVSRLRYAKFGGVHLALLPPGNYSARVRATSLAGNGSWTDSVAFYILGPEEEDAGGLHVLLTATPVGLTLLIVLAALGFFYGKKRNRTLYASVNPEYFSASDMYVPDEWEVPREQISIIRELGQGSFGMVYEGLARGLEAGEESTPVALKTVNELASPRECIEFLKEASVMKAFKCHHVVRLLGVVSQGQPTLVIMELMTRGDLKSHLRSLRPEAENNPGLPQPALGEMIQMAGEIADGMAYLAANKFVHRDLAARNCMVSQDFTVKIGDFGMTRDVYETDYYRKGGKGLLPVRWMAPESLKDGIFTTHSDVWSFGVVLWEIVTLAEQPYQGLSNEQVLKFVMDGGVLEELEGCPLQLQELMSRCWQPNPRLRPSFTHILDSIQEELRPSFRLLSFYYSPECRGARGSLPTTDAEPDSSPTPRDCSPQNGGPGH

O=C(N[C@@H](C1CC1)C(F)(F)F)c1cc(-c2cnn3cc(-c4ccc(F)cc4)cnc23)cs1 showed a fold change (FC) [1] of 0, an inhibition [2] of 2% and a fold change (FC) [3] of 0.64. For the same molecule, the inhibition [4] was 3%.
CC(C)[C@H](NC(=O)c1cc(-c2cnn3cc(-c4ccc(OCCN5CCCCC5)cc4)cnc23)cs1)C(F)(F)F gave a fold change (FC) [5] of 0 and an inhibition [6] of 0%.
CNC(=O)c1ccccc1Oc1nc(Nc2cc(OC)c(OC)c(OC)c2)ncc1Br was tested, and the fold change (FC) [7] was 0.
